Assay results taken from US11542259B2, “Compounds for the treatment of kinase-dependent disorders” (Exelixis, Inc., priority 2018, dated 2023).

Experiments:
Type in all cases: cell-based
[1] = biological target: Met (Homo sapiens (Human), UniProt P08581); test: Met autophosphorylation ELISA in PC-3 cells; conditions: cellular, HGF stimulated, read-out: c-Met IC50
Description: PC-3 prostate cancer cells (ATCC #CRL-1435) were seeded at 4×10^4 cells/well onto 24-well plates (Greiner #662165), in DMEM (Thermo Fisher #11995-040) containing 10% FBS (Thermo Fisher #26140-079), 1% MEM NEAA (Thermo Fisher #11140-050), 1% GlutaMax (Thermo Fisher #35050-061), and 1% Penicillin Streptomycin (Thermo Fisher #15140-122). PC-3 cells were incubated at 37° C., 5% CO2 for 24 h and then starved for 3 h in serum-free medium. Test compounds were serially diluted to produce an 8-point dose curve in fresh serum-free medium to a final concentration of 0.3% DMSO (vehicle) and added to the cells and incubated for 1 h. Cells were then stimulated with 100 ng/mL recombinant human HGF (R&D Systems #294-HG-250) for 10 min, washed with cold PBS and immediately lysed with 130 μL of cold 1× lysis buffer [20 mM Tris, 137 mM sodium chloride, 2 mM EDTA, 10% glycerol, 1% NP-40 alternative, 1 mM activated sodium orthovanadate, 1 mM PefaBloc SC (Sigma-Aldrich #11429868001), protease/phosphatase inhibitor tablet (Thermo Fisher #A32959)]. Lysates were clarified by centrifugation and 100 μL/well added into the PathScan phospho-Met (panTyr) Sandwich ELISA (Cell Signaling Technology #7333). Assay was performed according to manufacturer's instructions. Positive control wells (100% activity) contained HGF-stimulated, DMSO-treated cell lysates. Negative control wells (0% activity) contained HGF-stimulated, reference inhibitor-treated cell lysates. IC50 values were calculated by nonlinear regression analysis using a 4-parameter logistic curve fit in ActivityBase XE (IDBS).

[2] = biological target: KDR (Homo sapiens (Human), UniProt P35968); test: KDR autophosphorylation ELISA in HUVEC cells; conditions: cellular, VEGF165 stimulated
Description: Human umbilical vein endothelial cells or HUVEC (Lonza #C2519A) were seeded at 2×10^4 cells/well onto 96-well plates (Corning #3904), in EGM-2 growth medium (Lonza #CC-3162) containing 1% Penicillin Streptomycin (Thermo Fisher #15140-122). HUVEC cells were incubated at 37° C., 5% CO2 for 24 h and then starved for 24 h in serum-free EBM-2 basal medium (Lonza #CC-3156) containing 1% Penicillin Streptomycin. Test compounds were serially diluted to produce an 8-point dose curve in fresh serum-free medium to a final concentration of 0.3% DMSO (vehicle) and added to the cells and incubated for 1 h. Cells were then stimulated with 100 ng/mL recombinant human VEGF165 (R&D Systems #293-VE-500) for 5 min, washed with cold PBS, and immediately lysed with 130 μL of cold 1× lysis buffer [20 mM Tris, 137 mM sodium chloride, 2 mM EDTA, 10% glycerol, 1% NP-40 alternative, 1 mM activated sodium orthovanadate, 1 mM PefaBloc SC (Sigma-Aldrich #11429868001), protease/phosphatase inhibitor tablet (Thermo Fisher #A32959)]. Lysates were collected and 100 μL/well added into the human phospho-KDR DuoSet IC ELISA (R&D Systems #DYC1766-2). Assay was performed according to manufacturer's instructions and sample phospho-KDR concentrations were extrapolated using human phospho-KDR control (R&D Systems #841421) as a standard. Positive control wells (100% activity) contained VEGF165-stimulated, DMSO-treated cell lysates. Negative control wells (0% activity) contained non-stimulated cell lysates. IC50 values were calculated by nonlinear regression analysis using a 4-parameter logistic curve fit in ActivityBase XE (IDBS).

[3] = biological target: AXL (Homo sapiens (Human), UniProt P30530); test: AXL autophosphorylation ELISA in A-172 cells; conditions: cellular, Gas6 stimulated
Description: A-172 glioblastoma cells (ATCC #CRL-1620) were seeded at 2.5×10^5 cells/well onto 24-well plates (Greiner #662165), in DMEM (Thermo Fisher #11995-040) containing 10% FBS (Thermo Fisher #26140-079), 1% MEM NEAA (Thermo Fisher #11140-050), 1% GlutaMax (Thermo Fisher #35050-061) and 1% Penicillin Streptomycin (Thermo Fisher #15140-122). A-172 cells were incubated at 37° C., 5% CO2 for 24 h and then starved for 24 h in serum-free medium. Test compounds were serially diluted to produce an 8-point dose curve in fresh serum-free medium to a final concentration of 0.3% DMSO (vehicle) and added to the cells and incubated for 1 h. Cells were then stimulated with 1 μg/mL recombinant human Gas6 (R&D Systems #885-GSB-500) for 15 min, washed with cold PBS and immediately lysed with 150 μL of cold 1× lysis buffer [20 mM Tris, 137 mM sodium chloride, 2 mM EDTA, 10% glycerol, 1% NP-40 alternative, 1 mM activated sodium orthovanadate, 1 mM PefaBloc SC (Sigma-Aldrich #11429868001), protease/phosphatase inhibitor tablet (Thermo Fisher #A32959)]. Lysates were collected and 100 μL/well added into the human phospho-AXL DuoSet IC ELISA (R&D Systems #DYC2228-2). Assay was performed according to manufacturer's instructions and sample phospho-AXL concentrations were extrapolated using human phospho-AXL control (R&D Systems #841645) as a standard. Positive control wells (100% activity) contained Gash-stimulated, DMSO-treated cell lysates. Negative control wells (0% activity) contained Gash-stimulated, reference inhibitor-treated cell lysates. IC50 values were calculated by nonlinear regression analysis using a 4-parameter logistic curve fit in ActivityBase XE (IDBS).

Sequence of KDR (P35968 20-1356): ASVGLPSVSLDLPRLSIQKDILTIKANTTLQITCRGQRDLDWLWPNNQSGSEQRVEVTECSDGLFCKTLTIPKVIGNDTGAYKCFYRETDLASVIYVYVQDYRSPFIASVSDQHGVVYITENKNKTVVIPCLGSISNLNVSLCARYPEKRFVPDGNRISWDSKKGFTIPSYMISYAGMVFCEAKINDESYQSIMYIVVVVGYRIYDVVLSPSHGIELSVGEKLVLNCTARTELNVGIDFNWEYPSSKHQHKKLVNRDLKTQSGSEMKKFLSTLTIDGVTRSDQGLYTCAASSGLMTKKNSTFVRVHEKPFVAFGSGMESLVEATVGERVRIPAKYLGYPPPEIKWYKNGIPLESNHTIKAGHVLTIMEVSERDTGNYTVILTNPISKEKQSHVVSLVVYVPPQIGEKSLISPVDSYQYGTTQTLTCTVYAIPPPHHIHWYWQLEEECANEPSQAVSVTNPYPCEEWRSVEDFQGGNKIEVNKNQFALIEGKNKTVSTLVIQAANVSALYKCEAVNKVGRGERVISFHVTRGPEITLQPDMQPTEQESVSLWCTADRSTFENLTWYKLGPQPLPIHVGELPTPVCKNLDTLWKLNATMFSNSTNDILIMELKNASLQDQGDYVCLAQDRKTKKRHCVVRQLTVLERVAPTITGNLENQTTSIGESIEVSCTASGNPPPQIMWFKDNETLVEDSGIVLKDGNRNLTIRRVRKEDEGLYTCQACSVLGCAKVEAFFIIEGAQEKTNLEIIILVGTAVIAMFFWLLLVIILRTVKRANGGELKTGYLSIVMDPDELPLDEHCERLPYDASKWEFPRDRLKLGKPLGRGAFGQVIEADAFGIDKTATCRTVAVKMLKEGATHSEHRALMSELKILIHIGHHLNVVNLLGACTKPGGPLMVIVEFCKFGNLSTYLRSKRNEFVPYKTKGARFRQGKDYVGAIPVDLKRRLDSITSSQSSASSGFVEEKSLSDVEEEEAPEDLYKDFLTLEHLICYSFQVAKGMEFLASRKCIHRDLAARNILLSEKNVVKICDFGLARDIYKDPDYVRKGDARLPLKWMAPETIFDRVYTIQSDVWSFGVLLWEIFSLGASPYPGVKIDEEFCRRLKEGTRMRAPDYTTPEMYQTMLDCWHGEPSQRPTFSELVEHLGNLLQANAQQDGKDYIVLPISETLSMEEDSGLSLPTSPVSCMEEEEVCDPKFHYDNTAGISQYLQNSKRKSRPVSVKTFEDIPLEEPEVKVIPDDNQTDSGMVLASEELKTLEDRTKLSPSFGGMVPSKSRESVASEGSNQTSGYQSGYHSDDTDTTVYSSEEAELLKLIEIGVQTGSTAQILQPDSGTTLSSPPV
Sequence of AXL (P30530 26-894): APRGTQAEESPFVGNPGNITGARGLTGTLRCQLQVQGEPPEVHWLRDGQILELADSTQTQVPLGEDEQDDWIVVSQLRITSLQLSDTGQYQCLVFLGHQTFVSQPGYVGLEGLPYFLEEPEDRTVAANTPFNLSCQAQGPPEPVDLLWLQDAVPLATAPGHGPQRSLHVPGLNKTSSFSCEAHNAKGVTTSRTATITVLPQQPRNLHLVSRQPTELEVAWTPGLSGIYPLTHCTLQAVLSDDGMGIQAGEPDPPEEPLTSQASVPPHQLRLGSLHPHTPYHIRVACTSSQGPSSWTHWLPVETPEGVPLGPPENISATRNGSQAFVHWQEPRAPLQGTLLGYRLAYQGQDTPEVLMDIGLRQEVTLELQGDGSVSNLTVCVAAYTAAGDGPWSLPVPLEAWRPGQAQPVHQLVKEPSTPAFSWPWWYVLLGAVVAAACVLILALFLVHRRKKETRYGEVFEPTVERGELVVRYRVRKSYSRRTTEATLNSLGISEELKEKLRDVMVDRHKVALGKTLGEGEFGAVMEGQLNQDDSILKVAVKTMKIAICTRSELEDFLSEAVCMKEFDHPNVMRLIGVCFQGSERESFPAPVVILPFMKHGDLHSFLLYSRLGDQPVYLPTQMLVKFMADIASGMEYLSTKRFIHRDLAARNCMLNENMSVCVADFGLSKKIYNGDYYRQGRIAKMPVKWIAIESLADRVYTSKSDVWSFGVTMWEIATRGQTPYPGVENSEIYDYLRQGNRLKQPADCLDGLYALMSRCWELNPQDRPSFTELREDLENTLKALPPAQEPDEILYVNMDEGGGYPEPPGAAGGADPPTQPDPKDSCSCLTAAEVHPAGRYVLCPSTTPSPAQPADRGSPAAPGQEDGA
Sequence of Met (P08581 25-1390): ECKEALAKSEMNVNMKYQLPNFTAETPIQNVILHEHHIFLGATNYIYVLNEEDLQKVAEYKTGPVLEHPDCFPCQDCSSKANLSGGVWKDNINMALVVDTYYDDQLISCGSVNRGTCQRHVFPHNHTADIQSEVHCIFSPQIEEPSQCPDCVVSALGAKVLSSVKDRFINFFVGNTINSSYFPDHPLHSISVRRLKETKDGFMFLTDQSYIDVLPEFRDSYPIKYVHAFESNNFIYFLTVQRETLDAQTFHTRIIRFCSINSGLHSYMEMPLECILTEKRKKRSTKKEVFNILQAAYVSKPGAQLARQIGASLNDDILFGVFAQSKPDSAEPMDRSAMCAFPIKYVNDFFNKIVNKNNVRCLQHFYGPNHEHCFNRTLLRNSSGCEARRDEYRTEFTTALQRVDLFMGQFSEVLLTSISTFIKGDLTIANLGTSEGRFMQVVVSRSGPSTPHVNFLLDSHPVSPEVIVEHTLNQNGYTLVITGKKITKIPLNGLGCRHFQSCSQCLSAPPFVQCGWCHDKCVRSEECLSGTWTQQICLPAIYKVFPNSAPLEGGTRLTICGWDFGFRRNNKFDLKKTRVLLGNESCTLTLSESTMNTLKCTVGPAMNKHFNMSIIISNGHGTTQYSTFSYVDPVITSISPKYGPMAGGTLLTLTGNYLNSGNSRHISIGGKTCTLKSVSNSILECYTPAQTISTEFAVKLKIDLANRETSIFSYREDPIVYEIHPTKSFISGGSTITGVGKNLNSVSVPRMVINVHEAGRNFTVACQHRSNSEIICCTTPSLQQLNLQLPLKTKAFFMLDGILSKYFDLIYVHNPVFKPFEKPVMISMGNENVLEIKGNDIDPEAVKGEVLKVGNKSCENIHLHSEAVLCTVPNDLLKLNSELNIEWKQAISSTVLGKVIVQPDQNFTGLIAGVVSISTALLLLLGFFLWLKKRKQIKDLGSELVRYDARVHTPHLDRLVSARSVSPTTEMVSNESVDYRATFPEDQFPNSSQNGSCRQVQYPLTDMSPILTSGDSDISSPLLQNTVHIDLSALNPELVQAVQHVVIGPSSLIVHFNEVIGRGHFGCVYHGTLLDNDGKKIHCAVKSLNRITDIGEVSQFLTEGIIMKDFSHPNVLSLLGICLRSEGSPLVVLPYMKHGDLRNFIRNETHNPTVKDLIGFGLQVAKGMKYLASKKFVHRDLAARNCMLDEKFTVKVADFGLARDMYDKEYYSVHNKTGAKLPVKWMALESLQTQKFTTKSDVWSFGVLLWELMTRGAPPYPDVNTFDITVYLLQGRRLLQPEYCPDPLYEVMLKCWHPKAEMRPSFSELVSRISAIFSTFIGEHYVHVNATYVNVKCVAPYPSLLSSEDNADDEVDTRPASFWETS

IC50 [1]	IC50 [2]	IC50 [3]	Compound
0.01 to 0.1 µM	0.1 to 0.3 µM	0.01 to 0.1 µM	O=C(NOCCO)c1ccc2c(Oc3ccc(NC(=O)C4(C(=O)Nc5ccc(F)cc5)CC4)cc3)ccnc2c1 [Compound 166, 1-N′-(4-Fluorophenyl)-1-N-[4-[7-(2-hydroxyethoxycarbamoyl)-quinolin-4-yl]oxyphenyl]cyclopropane-1,1-dicarboxamide]
> 0.3 µM	> 0.3 µM	> 0.3 µM	Nc1cc2nccc(Oc3ccc(NC(=O)C4(C(=O)Nc5ccc(F)cc5)CC4)cc3)c2cc1C(=O)O [Compound 89, 7-Amino-4-[4-[[1-[(4-fluorophenyl)carbamoyl]cyclopropane-carbonyl]amino]phenoxy]quinoline-6-carboxylic Acid]
0.1 to 0.3 µM	0.1 to 0.3 µM	0.01 to 0.1 µM	CC1NC(=O)c2cc3c(Oc4ccc(NC(=O)C5(C(=O)Nc6ccc(F)cc6)CC5)cc4)ccnc3cc2O1 (stereo not drawn) [Compound 92, 1-N′-(4-Fluorophenyl)-1-N-[4-[(2-methyl-4-oxo-2,3-dihydropyrido[3,2-g][1,3]benzoxazin-6-yl)oxy]phenyl]cyclopropane-1,1-dicarboxamide]
0.01 to 0.1 µM	0.01 to 0.1 µM	0.01 to 0.1 µM	COCCNc1cc2nccc(Oc3ccc(NC(=O)C4(C(=O)Nc5ccc(F)cc5)CC4)cc3)c2cc1C(N)=O [Compound 70, 1-N-[4-[6-Carbamoyl-7-(2-methoxyethylamino)quinolin-4-yl]oxyphenyl]-1-N′-(4-fluorophenyl)cyclopropane-1,1-dicarboxamide]
0.1 to 0.3 µM	0.1 to 0.3 µM	0.01 to 0.1 µM	CNC(=O)c1cc2c(Oc3ccc(NC(=O)C4(C(=O)Nc5c(C)cc(F)cc5C)CC4)cc3F)ccnc2cc1OC [Compound 267, 1-N′-(4-Fluoro-2,6-dimethylphenyl)-1-N-[3-fluoro-4-[7-methoxy-6-(methylcarbamoyl)quinolin-4-yl]oxyphenyl]cyclopropane-1,1-dicarboxamide]

Continued, compound first:

Compound	IC50 [1]	IC50 [2]	IC50 [3]
CNc1cc2nccc(Oc3ccc(NC(=O)C4(C(=O)Nc5ccc(F)cc5)CC4)cc3)c2cc1C(=O)OC [Compound 84, Methyl 4-[4-[[1-[(4-fluorophenyl)carbamoyl]cyclopropane-carbonyl]amino]phenoxy]-7-(methylamino)quinoline-6-carboxylate]	0.01 to 0.1 µM	≤ 0.01 µM	≤ 0.01 µM
COc1cc2nccc(Oc3ccc(NC(=O)C4(C(=O)Nc5ccc(F)cc5)CC4)cc3)c2cc1-c1cn(C)cn1 [Compound 177, 1-N′-(4-Fluorophenyl)-1-N-[4-[7-methoxy-6-(1-methylimidazol-4-yl)quinolin-4-yl]oxyphenyl]cyclopropane-1,1-dicarboxamide]	0.01 to 0.1 µM	≤ 0.01 µM	≤ 0.01 µM
O=C(Nc1ccc(F)cc1)C1(C(=O)Nc2ccc(Oc3ccnc4ccc(-c5ccn[nH]5)cc34)cc2)CC1 [Compound 204, 1-N′-(4-Fluorophenyl)-1-N-[4-[6-(1H-pyrazol-5-yl)quinolin-4-yl]oxyphenyl]cyclopropane-1,1-dicarboxamide]	0.01 to 0.1 µM	0.01 to 0.1 µM	0.01 to 0.1 µM
COC(=O)c1cc2c(Oc3ccc(NC(=O)C4(C(=O)Nc5ccc(F)cc5)CC4)cc3)ccnc2cc1N [Compound 90, Methyl 7-amino-4-[4-[[1-[(4-fluorophenyl)carbamoyl]-cyclopropanecarbonyl]amino]phenoxy]quinoline-6-carboxylate]	0.01 to 0.1 µM	0.01 to 0.1 µM	0.01 to 0.1 µM
O=C(NOC1COC1)c1ccc2c(Oc3ccc(NC(=O)C4(C(=O)Nc5ccc(F)cc5)CC4)cc3)ccnc2c1 [Compound 167, 1-N′-(4-Fluorophenyl)-1-N-[4-[7-(oxetan-3-yloxycarbamoyl)quinolin-4-yl]oxyphenyl]cyclopropane-1,1-dicarboxamide]	0.1 to 0.3 µM	0.1 to 0.3 µM	0.1 to 0.3 µM
CO/N=C(/C)c1cc2c(Oc3ccc(NC(=O)C4(C(=O)Nc5ccc(F)cc5)CC4)cc3)ccnc2cc1OC [Compound 36, 1-N′-(4-fluorophenyl)-1-N-[4-[7-methoxy-6-[(Z)-N-methoxy-C-methylcarbonimidoyl]quinolin-4-yl]oxyphenyl]cyclopropane-1,1-dicarboxamide]	0.1 to 0.3 µM	> 0.3 µM	0.1 to 0.3 µM
CNC(=O)Nc1ccc2c(Oc3ccc(NC(=O)C4(C(=O)Nc5ccc(F)cc5)CC4)cc3)ccnc2c1 [Compound 281, 1-N′-(4-Fluorophenyl)-1-N-[4-[7-(methylcarbamoylamino)quinolin-4-yl]oxyphenyl]cyclopropane-1,1-dicarboxamide]	0.01 to 0.1 µM	0.1 to 0.3 µM	0.1 to 0.3 µM
NC(=O)c1cc2c(Oc3ccc(NC(=O)C4(C(=O)Nc5ccc(F)cc5)CC4)cc3)ccnc2cc1OCCO [Compound 106, 1-N-[4-[6-Carbamoyl-7-(2-hydroxyethoxy)quinolin-4-yl]oxyphenyl]-1-N′-(4-fluorophenyl)cyclopropane-1,1-dicarboxamide]	0.01 to 0.1 µM	≤ 0.01 µM	≤ 0.01 µM
